Data reported in US5728686A, “Alkylxanthine phosphonates and alkylxanthine phosphine oxides and their use as pharmaceuticals” (Hoechst Aktiengesellschaft, priority 1996, dated 1998).
≈ marks a conversion by molar mass, not a printed value.

Experiments:
[1] = tested on: isolated guinea pig lung strips, leukotriene D4 (LTD4); assay: antagonist of LTD4-induced contraction of isolated guinea pig lung strips; assay type: cell-based; settings: Cavia porcellus, read-out: Anticontractile action (lung), LTD4: concentration range corresponding to the IC50 value
Text: 4. Activity as an antagonist of the contraction of isolated guinea pig lung strips
The test carried out is based on the same principle as the test indicated in the pharmacological test 3; however, lung strips are used here.
(§1) Preparation of the organ sections and experimental procedure:
The guinea pig is sacrificed under laughing gas anaesthesia. The entire pulmonary tract is exposed starting from the trachea. The lobes of the lung are cut in a circular fashion such that 3 mm wide strips are formed. The strips of the upper lobes are divided in order to obtain a total of six approximately equal size strips. The strips are suspended in the organ baths under a preload of 4 g. The nutrient solutions used are modified Krebs Henseleit solutions. When using "Platelet activating factor" (PAF) as an […], the composition of this solution corresponds to that for the agonist SP in "Test 3"; for the agonist LTD4 a Krebs Henseleit solution as in the case of the agonist KCl (Test 3) is used. 95% by volume O2, 5% by volume CO2 is used for bubbling through the bath; the bath temperature is 37° C. The experimental procedure is carried out in a therapeutically cumulative methodology, using the dosage graduations 1, 3, 6 and 10 μg/ml.
The experimental animals, organ bath, vehicles and manner of administration correspond to that stated in pharmacological test 3.
All numerical values are indicated in the unit μg/ml and relate to the concentration range of tested compound of the formula I (see example numbers in Table 1) which is necessary in order to cause a contraction which corresponds to the IC50 value.

[2] = tested on: isolated guinea pig trachea, agonist calcium ionophore A23187; assay: antagonist of calcium ionophore A23187-induced contraction of isolated guinea pig trachea; assay type: cell-based; settings: Cavia porcellus, 37° C., read-out: Anticontractile action (trachea), Ca ionophore: concentration range for dilatation corresponding to ED50 range
Text: (§2) 3. Activity as antagonist of the contraction of isolated guinea pig trachea
(§3) The compounds of the formula I are used as antagonists of the contraction of isolated guinea pig trachea. The agonists employed were PGF2α (Upjohn, Germany), calcium ionophore A23187 (Calbiochem, Bad Soden, Germany), and substance P (American Peptide Comp., USA):
b) Calcium ionophore A23187 (Calbiochem, Bad Soden) acts by increased uptake of calcium ions, and an activation of all calcium-dependent signal cascades in the cell. Lipoxygenase inhibitors, in particular, and generally antiinflammatory substances show effects in this model.
as §1
(§4) The guinea pig is sacrificed by means of terminal laughing gas anaesthesia. The trachea is exposed along its entire length and cut into 15 individual cartilage rings. 5 rings in each case are tied together to give a chain and fixed in the organ bath under a preload of 3 g. After an equilibration time of 45 minutes, a contraction is produced using the agonist. The antagonist (test preparation) is added cumulatively on the plateau of the maximum. Evaluation is carried out in % force change relative to the contraction maximum. The experimental procedure is carried out at 37° C.; the physiological nutrient solution used is a modified Krebs-Henseleit solution through which is bubbled 95% by volume of O2, 5% by volume of CO2.
(§5) Experimental animals: albino guinea pigs (Hattersheim Animal Breeding Institute, Kastengrund, Germany), weight: 200 to 300 g, sex male or female.
(§6) Vehicle: double-distilled water, ethanol or isopropanol; administration: into the organ bath number of administration: cumulative, in SP individual doses
(§7) All numerical values are indicated in the unit μg/ml and relate to the concentration range of the tested compound of the formula I according to the invention (see example numbers in Table 1) which is necessary in order to cause a dilatation which corresponds to the ED50 range.

[3] = tested on: isolated guinea pig trachea, agonist substance P; assay: antagonist of substance P-induced contraction of isolated guinea pig trachea; assay type: cell-based; settings: Cavia porcellus, individual doses, 37° C., read-out: Anticontractile action (trachea), SP antagonism: concentration range for dilatation corresponding to ED50 range
Text: as §2, §3
The antagonism is possible on the one hand due to specific receptor antagonists, and on the other hand also due to inhibition of the subsequent signal pathway. Preparations which directly or indirectly increase the intracellular concentration of cyclic nucleotides in particular show spasmolytic properties here.
as §1, §4, §5, §6, §7

[4] = tested on: phosphodiesterase III; assay: inhibition of phosphodiesterase III activity; assay type: biochemical; settings: at 100 μM
Procedure: 5. Inhibition of phosphodiesterase III activity
The test is carried out using phosphodiesterase from Boehringer Mannheim (Mannheim, Germany), Order No. 108 243 according to the method of T. SAEKI, I. SAITO, Biochem. Pharm. 46, No. 5, […], pages 833-839.
All numerical values are indicated in % inhibition of the enzyme activity at 100 μM of the corresponding compound of the formula I.

[5] = tested on: soleus muscle; assay: rat muscle function test: muscle weight (atrophy of immobilized extremity); assay type: in vivo, male Wistar rats; settings: oral, 1x per day for 3 weeks, as a rule 25 mg/kg, difference ≤25% classified as an effect
Summary of the method: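 Male Wistar rats (~300 g) had the right hind limb immobilized in a padded plastic cast for 3 weeks with daily oral dosing by stomach tube, as a rule 25 mg/kg in carboxymethylcellulose. Soleus weight of the immobilized limb was compared with the contralateral limb; a difference of ≤25% was classed as an effect.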

## CCOP(=O)(CCCn1cnc2c1c(=O)[nH]c(=O)n2C)OCC [Example 2, Diethyl [4-(3-methylxanthin-7-yl)propyl]phosphonate]
[1]
  IC50: 3 to 6 µg/mL (≈ 8.71 to 17.4 µM)
[2]
  EC50: > 10 µg/mL
[3]
  EC50: 10 to 30 µg/mL (≈ 29 to 87.1 µM)
[4]
  PDE III Inhibition: 65%
[5]
  Muscle weight (right/left difference): -22 Δ %
